From patent publication US11040035B2, “3-oxo-2,6-diphenyl-2,3-dihydropyridazine-4-carboxamides” (BAYER PHARMA AKTIENGESELLSCHAFT, priority 2016, dated 2021)

Key:
[1] = tested on: AHR-regulated gene CYP1A1; assay: In vitro assay 3: AHR-regulated CYP1A1 expression in human cell line (U937, qPCR); conditions: Homo sapiens, U-937, 6 h, read-out: Assay 3: Hum CYP1A1 Antagonism IC50 [M], U937 cells, 200 μM KA, 6 hours, qPCR
AHR [2] = biological target: T1, AHR (Homo sapiens, UniProt P35869); assay: In vitro assay 1: antagonism in human cell line (transactivation assay, kynurenic acid prestimulated); conditions: Assay 1: AHR-luc Hum Antagonism IC50 [M], 150 μM kynurenic acid, 20 hours, firefly luciferase
T1 sequence (P35869 11-848): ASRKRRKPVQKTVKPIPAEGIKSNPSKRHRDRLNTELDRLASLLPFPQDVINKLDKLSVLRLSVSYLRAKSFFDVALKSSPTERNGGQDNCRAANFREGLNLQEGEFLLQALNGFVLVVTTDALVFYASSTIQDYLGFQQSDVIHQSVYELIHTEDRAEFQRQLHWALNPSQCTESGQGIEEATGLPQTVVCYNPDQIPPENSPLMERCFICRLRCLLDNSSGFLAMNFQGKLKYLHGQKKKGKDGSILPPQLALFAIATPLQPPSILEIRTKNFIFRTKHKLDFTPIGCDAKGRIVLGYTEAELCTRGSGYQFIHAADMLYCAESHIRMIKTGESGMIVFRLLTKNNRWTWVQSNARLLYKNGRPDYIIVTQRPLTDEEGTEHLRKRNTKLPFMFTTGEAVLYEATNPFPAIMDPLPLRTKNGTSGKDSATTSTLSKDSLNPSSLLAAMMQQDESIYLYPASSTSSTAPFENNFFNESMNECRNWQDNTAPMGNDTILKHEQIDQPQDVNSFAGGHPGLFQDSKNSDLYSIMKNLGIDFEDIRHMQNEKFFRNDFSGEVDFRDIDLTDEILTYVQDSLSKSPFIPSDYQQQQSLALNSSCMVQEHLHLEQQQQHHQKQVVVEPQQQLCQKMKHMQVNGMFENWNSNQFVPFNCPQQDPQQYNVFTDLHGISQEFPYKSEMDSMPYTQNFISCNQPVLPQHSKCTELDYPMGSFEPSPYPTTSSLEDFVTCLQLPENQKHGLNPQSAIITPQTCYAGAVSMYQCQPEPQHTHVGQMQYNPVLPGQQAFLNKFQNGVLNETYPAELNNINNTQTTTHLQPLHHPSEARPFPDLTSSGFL

AHR [3] = biological target: T1, AHR; assay: In vitro assay 2: agonism in human cell line (transactivation assay)
[4] = Assay 2: AHR-luc Hum Agonism IC50 [M], no kynurenic acid, 20 hours, firefly luciferase

Structure (SMILES)	IC50 [1] [M]	IC50 (AHR [2]) [M]	IC50 (AHR [3]; [4]) [M]	IC50 (AHR [3]; read-out: Assay 2: AHR-luc Hum Agonism IC50, no kynurenic acid, 20 hours, firefly luciferase) [M]
O=C(N[C@H]1COC[C@H]1O)c1cc(-c2ccc(Cl)cc2)nn(-c2cccc(F)c2)c1=O [Example 166, 6-(4-Chlorophenyl)-2-(3-fluorophenyl)-N-[(3S,4S)-4-hydroxytetrahydrofuran-3-yl]-3-oxo-2,3-dihydropyridazine-4-carboxamide]	4.47e-08	4.05e-08	> 2e-05	–
CC(C)[C@@H](CO)NC(=O)c1cc(-c2ccc(OC(F)(F)F)cc2)nn(-c2cccc(F)c2)c1=O [Example 168, 2-(3-Fluorophenyl)-N-[(2S)-1-hydroxy-3-methylbutan-2-yl]-3-oxo-6-[4-(trifluoromethoxy)phenyl]-2,3-dihydropyridazine-4-carboxamide]	2.16e-08	6.92e-09	> 2e-05	–
O=C(NC(CO)C(F)(F)F)c1cc(-c2ccc(OC(F)(F)F)cc2)nn(-c2cccc(F)c2)c1=O (stereo not drawn) [Example 169, 2-(3-Fluorophenyl)-3-oxo-N-(1,1,1-trifluoro-3-hydroxypropan-2-yl)-6-[4-(trifluoromethoxy)phenyl]-2,3-dihydropyridazine-4-carboxamide]	1.35e-08	1.11e-08	> 2e-05	–
C[C@@H](CO)NC(=O)c1cc(-c2ccc(OC(F)(F)F)cc2)nn(-c2cccc(F)c2)c1=O [Example 173, 2-(3-Fluorophenyl)-N-[(2S)-1-hydroxypropan-2-yl]-3-oxo-6-[4-(trifluoromethoxy)phenyl]-2,3-dihydropyridazine-4-carboxamide]	9.1e-08	3.31e-08	> 2e-05	–
O=C(NCC(O)C(F)(F)F)c1cc(-c2ccc(OC(F)(F)F)cc2)nn(-c2cccc(F)c2)c1=O (stereo not drawn) [Example 182, 2-(3-Fluorophenyl)-3-oxo-N-(3,3,3-trifluoro-2-hydroxypropyl)-6-[4-(trifluoromethoxy)phenyl]-2,3-dihydropyridazine-4-carboxamide]	5.9e-08	3.41e-08	> 2e-05	–
C[C@H](O)[C@H](C)NC(=O)c1cc(-c2ccc(OC(F)(F)F)cc2)nn(-c2cccc(F)c2)c1=O [Example 185, 2-(3-Fluorophenyl)-N-[(2S,3S)-3-hydroxybutan-2-yl]-3-oxo-6-[4-(trifluoromethoxy)phenyl]-2,3-dihydropyridazine-4-carboxamide]	8.06e-08	3.9e-08	> 2e-05	–
CC(C)(CO)NC(=O)c1cc(-c2ccc(Cl)cc2)nn(-c2cccc(F)c2)c1=O [Example 186, 6-(4-Chlorophenyl)-2-(3-fluorophenyl)-N-(1-hydroxy-2-methylpropan-2-yl)-3-oxo-2,3-dihydropyridazine-4-carboxamide]	1.34e-07	1.88e-07	> 2e-05	–
O=C(NC1(CO)CC1)c1cc(-c2ccc(Cl)cc2)nn(-c2cccc(F)c2)c1=O [Example 187, 6-(4-Chlorophenyl)-2-(3-fluorophenyl)-N-[1-(hydroxymethyl)cyclopropyl]-3-oxo-2,3-dihydropyridazine-4-carboxamide]	1.1e-07	1.02e-07	> 2e-05	–
O=C(NCCCO)c1cc(-c2ccc(Cl)cc2)nn(-c2cccc(F)c2)c1=O [Example 189, 6-(4-Chlorophenyl)-2-(3-fluorophenyl)-N-(3-hydroxypropyl)-3-oxo-2,3-dihydropyridazine-4-carboxamide]	2e-06	1.86e-07	> 2e-05	–
COC[C@H](CO)NC(=O)c1cc(-c2ccc(Cl)cc2)nn(-c2cccc(F)c2)c1=O [Example 229, 6-(4-Chlorophenyl)-2-(3-fluorophenyl)-N-[(2S)-1-hydroxy-3-methoxypropan-2-yl]-3-oxo-2,3-dihydropyridazine-4-carboxamide]	2e-06	1.5e-07	> 2e-05	–
C[C@@H](O)[C@@H](C)NC(=O)c1cc(-c2ccc(Cl)cc2)nn(-c2cccc(F)c2)c1=O [Example 231, 6-(4-Chlorophenyl)-2-(3-fluorophenyl)-N-[(2R,3R)-3-hydroxybutan-2-yl]-3-oxo-2,3-dihydropyridazine-4-carboxamide]	5.77e-08	4.72e-08	> 2e-05	–
C[C@@H](CO)NC(=O)c1cc(-c2ccc(C(F)(F)F)cc2)nn(-c2cccc(F)c2)c1=O [Example 237, 2-(3-Fluorophenyl)-N-[(2S)-1-hydroxypropan-2-yl]-3-oxo-6-[4-(trifluoromethyl)phenyl]-2,3-dihydropyridazine-4-carboxamide]	2.46e-08	1.23e-08	> 2e-05	–
C[C@H](O)CCNC(=O)c1cc(-c2ccc(C(F)(F)F)cc2)nn(-c2cccc(F)c2)c1=O [Example 248, 2-(3-Fluorophenyl)-N-[(3S)-3-hydroxybutyl]-3-oxo-6-[4-(trifluoromethyl)phenyl]-2,3-dihydropyridazine-4-carboxamide]	1.36e-07	9.73e-08	> 2e-05	–
O=C(NC(CO)CO)c1cc(-c2ccc(C(F)(F)F)cc2)nn(-c2cccc(F)c2)c1=O [Example 250, N-(1,3-Dihydroxypropan-2-yl)-2-(3-fluorophenyl)-3-oxo-6-[4-(trifluoromethyl)phenyl]-2,3-dihydropyridazine-4-carboxamide]	7.24e-08	4.69e-08	> 2e-05	–

The remaining compounds from weak to strong by IC50 [1], led by results:

IC50 [1] [M]	IC50 (AHR [2]) [M]	IC50 (AHR [3]; [4]) [M]	IC50 (AHR [3]; read-out: Assay 2: AHR-luc Hum Agonism IC50, no kynurenic acid, 20 hours, firefly luciferase) [M]	Structure (SMILES)
6e-07	1.03e-07	> 2e-05	–	O=C(N[C@H](CO)Cc1ccccc1)c1cc(-c2ccc(Cl)cc2)nn(-c2cccc(F)c2)c1=O [Example 220, (−)-6-(4-Chlorophenyl)-2-(3-fluorophenyl)-N-[(2S)-1-hydroxy-3-phenylpropan-2-yl]-3-oxo-2,3-dihydropyridazine-4-carboxamide]
2.21e-07	8.72e-08	> 2e-05	–	O=C(NC1(CO)CCC1)c1cc(-c2ccc(Cl)cc2)nn(-c2cccc(F)c2)c1=O [Example 213, 6-(4-Chlorophenyl)-2-(3-fluorophenyl)-N-[1-(hydroxymethyl)cyclobutyl]-3-oxo-2,3-dihydropyridazine-4-carboxamide]
2.03e-07	1.63e-07	> 2e-05	–	O=C(N[C@H]1COC[C@@H]1O)c1cc(-c2ccc(Cl)cc2)nn(-c2cccc(F)c2)c1=O [Example 167, 6-(4-Chlorophenyl)-2-(3-fluorophenyl)-N-[(3S,4R)-4-hydroxytetrahydrofuran-3-yl]-3-oxo-2,3-dihydropyridazine-4-carboxamide]
1.51e-07	6.88e-08	–	> 2e-05	CC(NC(=O)c1cc(-c2ccc(Cl)cc2)nn(-c2cccc(F)c2)c1=O)C(O)C(F)(F)F (stereo not drawn) [Example 218, Stereoisomer no. 1 of 6-(4-chlorophenyl)-2-(3-fluorophenyl)-3-oxo-N-(4,4,4-trifluoro-3-hydroxybutan-2-yl)-2,3-dihydropyridazine-4-carboxamide]
1.07e-07	8.84e-08	> 2e-05	–	O=C(NCCCO)c1cc(-c2ccc(C(F)(F)F)cc2)nn(-c2cccc(F)c2)c1=O [Example 249, 2-(3-Fluorophenyl)-N-(3-hydroxypropyl)-3-oxo-6-[4-(trifluoromethyl)phenyl]-2,3-dihydropyridazine-4-carboxamide]
4.92e-08	3.59e-08	> 2e-05	–	O=C(NCC1(O)CCC1)c1cc(-c2ccc(Cl)cc2)nn(-c2cccc(F)c2)c1=O [Example 212, 6-(4-Chlorophenyl)-2-(3-fluorophenyl)-N-[(1-hydroxycyclobutyl)methyl]-3-oxo-2,3-dihydropyridazine-4-carboxamide]
4.05e-08	2.78e-08	> 2e-05	–	C[C@H](CO)CNC(=O)c1cc(-c2ccc(C(F)(F)F)cc2)nn(-c2cccc(F)c2)c1=O [Example 246, (−)-2-(3-Fluorophenyl)-N-[(2S)-3-hydroxy-2-methylpropyl]-3-oxo-6-[4-(trifluoromethyl)phenyl]-2,3-dihydropyridazine-4-carboxamide]
2.68e-08	2.63e-08	> 2e-05	–	CC[C@@H](CO)NC(=O)c1cc(-c2ccc(OC(F)(F)F)cc2)nn(-c2cccc(F)c2)c1=O [Example 172, 2-(3-Fluorophenyl)-N-[(2S)-1-hydroxybutan-2-yl]-3-oxo-6-[4-(trifluoromethoxy)phenyl]-2,3-dihydropyridazine-4-carboxamide]
